Test results: patent US7232570B2, “ERAAP modulators regulate immune responses” (Regents of the University of California, priority 2002, dated 2007)

Tested on: Sprague-Dawley rats
Assay: Phenotypic and functional indicia of immunosuppression in treated rats
Format: in vivo
Conditions: e.g. influenza and lymphocytic coriomeningitis virus

Compound: CC(C)C[C@H](N)CS [leucinethiol]
- resistance to viral challenge: reduced
